{"source": "patent US20110275695A1", "about": "“CRYSTALLINE FORMS OF ZOTEPINE HYDROCHLORIDE” (BIONEVIA PHARMACEUTICALS, INC., priority 2008, published 2011)", "key": {"[1]": {"assay": "Intrinsic dissolution in water at 25° C. (Woods apparatus pellets, UV at 302 nm)", "assay_type": "physicochemical", "settings": "for intrinsic dissolution rate: 50 RPM, 900 mL, mean of three pellets, equivalent hydrochloride salt concentration, not normalized for surface area", "description": "Intrinsic Dissolution: Pellets of approximately 200 mg were pressed at 3000 lbs. for 1 minute in a standard Woods apparatus, with a surface area of 0.5 cm^2. Three pellets were tested for each material, testing one material at a time. The samples were rotated in a VanKel dissolution apparatus, with automated sampling, at 50 RPM in 900 mL of water at 25° C. Aliquots were taken every two minutes and not filtered prior to analysis. Concentrations were determined through UV absorbance at approximately 302 nm, to avoid potential interference from benzoic acid. Equivalent hydrochloride salt concentrations were calculated from the Beer's Law plot generated from zotepine hydrochloride salt aqueous standards.\nTo determine the rate of dissolution of each material, a plot was generated of the absorbance over time for each vessel. From this plot, a linear region was chosen from the initial dissolution period of each material: starting at the first time point when the measured absorbance exceeded the minimum measured absorbance value in the Beer's Law relationship generated from zotepine hydrochloride salt aqueous standards. The end of the linear region was chosen as either 30 minutes after the first time point, or at the maximum recorded absorbance value that falls within the Beer's Law Relationship. Equivalent hydrochloride salt concentrations were plotted versus time for the regions. A straight-line was fit to the data for each vessel. The slope of these lines provides the dissolution rate for each of the materials, expressed as [μg/mL]/min. The mean of the three rates is the reported rate for each material, expressed as equivalent hydrochloride salt concentration, for direct comparison of the materials. The rates were not normalized for the surface area of the pellet."}, "[2]": {"assay": "Approximate aqueous solubility by portion-wise addition of solid to water, visual inspection", "description": "An attempt was made to measure the aqueous solubility of zotepine hydrochloride. To a 1-dram vial was charged 99 mg of zotepine hydrochloride, and 1 mL of HPLC-grade water (obtained from Mallinckrodt) was added.\nA 0.5-mL aliquot of the resulting zotepine hydrochloride aqueous solution was then charged to a second 2-dram vial, and 50 mg of zotepine hydrochloride (50 mg) was added. […] At this point, the procedure was discontinued."}, "[3]": {"assay": "Equilibrium solubility in water, ambient-temperature slurry, UV measurement", "assay_type": "physicochemical", "settings": "for equilibrium solubility in water / solid recovered from solubility experiment (XRPD analysis) / aqueous solubility (in words): ambient temperature; for equilibrium solubility in water: UV analysis of supernatant; for solid recovered from solubility experiment (XRPD analysis) / aqueous solubility (in words): water", "description": "Equilibrium Solubility—UV Measurement: Equilibrium solubility was determined in water using ambient-temperature slurry experiments. Samples were prepared with excess solids and agitated on a wheel for at least 3 days. Remaining solids were separated from the mixture by centrifugation. The clear supernatant was pipeted to a separate container and the concentration determined through ultraviolet (UV) spectrophotometry, diluting the sample with additional water if necessary. […] Equivalent zotepine hydrochloride salt concentrations were calculated from the Beer's Law plot generated front zotepine hydrochloride salt aqueous standards and adjusted to account for the stoichiometry of the solids utilized. Retained solids were analyzed by X-ray powder diffraction, if sufficient solids were present. Concentrations of aqueous solutions of BNV-218 were determined through ultraviolet absorbance. Ultraviolet spectrophotometry: Solutions were analyzed using a Cary 50 dual-beam spectrophotometer. They were analyzed at ambient temperature in a 1.000-cm quartz cuvette. Scans at 600 nm/min in the range of 800-200 nm were performed to determine an optimal wavelength for concentration measurement. The cuvette was washed with methanol, followed by water, and the detector was then zeroed prior to analysis of each sample. Wavelength calibration was performed using holmium oxide. The photometric accuracy was verified by measuring the intensity of the light at the detector when filters of known optical density were placed in the path of the beam."}, "[4]": {"settings": "pharmaceutical formulations containing the zotepine free base; cited from earlier work"}, "[5]": {"settings": "cited from earlier work"}, "[6]": {"settings": "listed as crystalline zotepine hydrochloride, hydrochloride"}}, "note": "“Also recorded” adds a separate entry of the source. Counter-ions that a name gives are not always drawn. Like-named read-outs stand apart in the source and are kept apart here.", "data": [{"smiles": "CN(C)CCOC1=Cc2ccccc2Sc2ccc(Cl)cc21.Cl.O=C(O)c1ccccc1", "note": "[1:1 zotepine hydrochloride benzoic acid cocrystal]", "values": [{"measurement": "dissolution rate in water (in words)", "setting": "[1]", "result": "intermediate between those of zotepine free base and zotepine hydrochloride"}, {"measurement": "solid recovered after dissolution experiment (XRPD analysis)", "setting": "[1]", "result": "the 1:1 zotepine hydrochloride benzoic acid cocrystal"}, {"measurement": "intrinsic dissolution rate", "setting": "[1]", "result": "0.3 [μg/mL]/min"}, {"measurement": "surface activity (suds on addition of solid to water, visual inspection)", "setting": "[2]; water", "result": "exhibited surface activity"}, {"measurement": "equilibrium solubility in water", "setting": "[3]", "result": "~44", "unit": "mg/mL"}, {"measurement": "equilibrium solubility in water", "setting": "[3]; listed as 1:1 benzoic acid cocrystal", "result": "approximately 44 mg/mL"}, {"measurement": "solid recovered from solubility experiment (XRPD analysis)", "setting": "[3]", "result": "1:1 benzoic acid cocrystal"}]}, {"smiles": "CN(C)CCOC1=Cc2ccccc2Sc2ccc(Cl)cc21.CN(C)CCOC1=Cc2ccccc2Sc2ccc(Cl)cc21.Cl.Cl.O=C(O)c1ccccc1", "note": "[2:1 zotepine hydrochloride benzoic acid cocrystal]", "values": [{"measurement": "dissolution rate in water (in words)", "setting": "[1]", "result": "intermediate between those of the 1:1 zotepine hydrochloride benzoic acid cocrystal and zotepine hydrochloride"}, {"measurement": "solid recovered after dissolution experiment (XRPD analysis)", "setting": "[1]", "result": "converts to the 2:1 zotepine hydrochloride benzoic acid cocrystal"}, {"measurement": "intrinsic dissolution rate", "setting": "[1]", "result": "2.3 [μg/mL]/min"}, {"measurement": "approximate solubility / calculated aqueous concentration from amount of solid added", "setting": "[2]; water, portion-wise addition of solid, ambient temperature", "result": "≥ 56", "unit": "mg/mL"}]}, {"smiles": "CN(C)CCOC1=Cc2ccccc2Sc2ccc(Cl)cc21", "note": "[zotepine free base, 2-[(8-chlorodibenzo[b,f]thiepin-10-yl)oxy]-N,N-dimethylethylamine, reference compound]", "values": [{"measurement": "bioavailability", "setting": "[4]", "result": "7-13%"}, {"measurement": "dissolution rate in water (in words)", "setting": "[1]", "result": "too low to be calculated; also recorded: negligible; also recorded: very close to zero"}, {"measurement": "maximum UV absorbance in intrinsic dissolution experiment", "setting": "[1]; 302 nm, experiment ended at 2,880 minutes", "result": 0.02}, {"measurement": "approximate solubility / calculated aqueous concentration from amount of solid added", "setting": "[2]", "result": "less than 4 mg/mL"}, {"measurement": "solubility in water as reported", "setting": "[5]", "result": "relatively insoluble in water"}, {"measurement": "largest recorded UV absorbance at end of equilibrium solubility experiment", "setting": "[3]", "result": 0.02}, {"measurement": "aqueous solubility (in words)", "setting": "[3]", "result": "negligible"}, {"measurement": "solid recovered from solubility experiment (XRPD analysis)", "setting": "[3]", "result": "zotepine free base"}]}, {"smiles": "CN(C)CCOC1=Cc2ccccc2Sc2ccc(Cl)cc21", "note": "[zotepine hydrochloride]", "values": [{"measurement": "intrinsic dissolution rate", "setting": "[1]; listed as zotepine hydrochloride salt, hydrochloride", "result": "3.9 [μg/mL]/min"}, {"measurement": "dissolution rate in water (in words)", "setting": "[1]; [6]", "result": "significantly higher"}, {"measurement": "surface activity (suds on addition of solid to water, visual inspection)", "setting": "[2]", "result": "high surface activity"}, {"measurement": "aqueous solubility (in words)", "setting": "[3]; [6]", "result": "significantly higher"}]}]}
